Assay in all cases: growth of human tumour cells (NCI), 48 h
Assay [1] has as its system RXF 393 renal.
For assay [2], the system named is 786-0 renal.
The subject of assay [3] is SK-OV-3 ovarian.
For assay [4], the system named is MOLT-4 leukemia.
Assay [5] deals with HCT-15 colon.
In assay [6] the test system is NCI-H460 lung.
The subject of assay [7] is EKVX NSCLC.
The subject of assay [8] is RPMI-8226 leukemia.
For assay [9], the system named is SK-MEL-28 melanoma.
Assay [10] has as its system SK-MEL-5 melanoma.

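Five compound concentrations were applied to cells in 96-well plates for 48 hours; endpoints were derived by simple linear interpolation of the resulting dose-response curve. Here, GI50 denotes the concentration required for 50% inhibition of growth. TGI is the concentration that stops growth completely.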

On to `CC(=O)c1ccc(N(/C=C/C(=O)C(F)(F)F)CC(=O)c2ccc(Cl)c(Cl)c2)cc1`, for which the GI50 in [1] was 13.9 µM; in [2] it was 17.8 µM; in [3], 18.1 µM; in assay [4] it was 4.18 µM; in [5] it was 13.4 µM; in assay [6], 15.6 µM. For the same molecule, the GI50 was 19.9 µM in assay [7], 9.64 µM in assay [8], 16.5 µM in assay [9] and 17.7 µM in assay [10]. For the same molecule, the TGI in assay [1] is 30.4 µM; in assay [2] it was 32 µM; in assay [3], 38.9 µM; in assay [4], 27.2 µM; in [5], 29.2 µM; in assay [6], > 100 µM. Further, the TGI in assay [7] turned out to be 38.5 µM; in [8], 36.6 µM; in [9], 40.7 µM; in assay [10] it was 32.4 µM.
With `COc1cc2c(c(O)c1C)C(=O)C(Cl)=CC2=O`, the TGI was 13.1 µM in [1]; 28.2 µM in assay [2]; > 65.6 µM in [3]; 8.66 µM in assay [4]; 27.6 µM in [5]; 63.3 µM in [6]. Besides, the TGI in assay [7] stood at 23.3 µM; in [8], 68.3 µM; in assay [9], 35.1 µM; in assay [10], 21.7 µM.
Take `O=C1c2ccccc2C(=O)c2c1ccc1[nH]c(CCl)nc21`: the GI50 is 1.86 µM in [1]; 2.91 µM in assay [2]; 3.67 µM in assay [3]; 1.68 µM in [4]; 1.45 µM in assay [5]; 3.97 µM in assay [6]. Also, the GI50 was 2.59 µM in [7], 1.83 µM in assay [8], 6.58 µM in [9] and 1.68 µM in [10]. The TGI amounted to 6.17 µM in assay [1]; 9.38 µM in assay [2]; 9.08 µM in assay [3]; 8.04 µM in [4]; 3.1 µM in assay [5]; 15.1 µM in [6]. Further, the TGI in assay [7] stood at 10.7 µM; in assay [8], 5.87 µM; in assay [9], 18.8 µM; in assay [10], 3.07 µM.
Turning to `O=C1CSC(N2CCN(c3cccc(Cl)c3)CC2)=N1`, the GI50 in [1], in assay [2], in [3], in assay [4], in assay [5] and in [6] was > 100 µM in each case. Further, the GI50 in assay [7], in assay [8], in assay [9] and in [10] was > 100 µM in each case. Also, the TGI in [1], in assay [2], in assay [3], in assay [4], in [5] and in assay [6] was > 100 µM in each case. The TGI in assay [7], in [8], in [9] and in assay [10] was > 100 µM each time.
As to `CCN1CCN(c2nc(NCCNc3ccnc4cc(Cl)ccc34)c3ccccc3n2)CC1`, the GI50 is 1.26 µM in [1]; 1.03 µM in assay [2]; 2.13 µM in [3]; 2.13 µM in assay [4]; 1.52 µM in [5]; 1.91 µM in [6]. Also, the GI50 was 2.62 µM in [7], 1.54 µM in assay [8], 2.04 µM in assay [9] and 1.82 µM in assay [10]. Further, the TGI in assay [1] is 2.77 µM; in [2] it was 2.44 µM; in [3] it was 4.71 µM; in [4], 7.17 µM; in assay [5] it was 5.25 µM; in [6] it was 5.33 µM. Besides, the TGI in assay [7] amounted to 11.6 µM; in assay [8] it was 4.41 µM; in assay [9] it was 3.81 µM; in assay [10], 3.21 µM.
With `COc1ccccc1NC(=O)c1ccc(/C=C/C(=O)c2nccn2C)cc1`, the GI50 in assay [1] is 0.42 µM; in [2], 0.542 µM; in [3] it was 1.06 µM; in assay [4] it was 0.711 µM; in assay [5], 0.363 µM; in assay [6], 0.572 µM. The GI50 in assay [7] is 0.591 µM; in [8], 0.429 µM; in assay [9], 0.57 µM; in assay [10], 0.648 µM. Besides, the TGI in assay [1] is 0.857 µM; in [2], 1.34 µM; in assay [3], 10.7 µM; in assay [4], 2.22 µM; in assay [5] it was 0.843 µM; in assay [6] it was 1.52 µM. In addition, the TGI in assay [7] amounted to 1.89 µM; in [8], 1.46 µM; in assay [9], 1.44 µM; in assay [10] it was 1.68 µM.

The values above are taken from PubChem BioAssay (NCI).
